Assay results published in patent US20050245399A1, “Pyrazole derivatives as herbicidal compositions containing them” (ISHIHARA SANGYO KAISHA, LTD., priority 2004, published 2005).

Key:
Assay type in all cases: in vivo
[1] = test system: crabgrass (Digitaria sanguinalis L.), DIGSA; assay: Test Example 2 post-emergence (foliage treatment) herbicidal activity, DIGSA; details: 63 g a.i./ha
From the text: (§1) Upland field soil was put into a 1/170,000 ha pot, and seeds of various plants were sown. Then, when the plants reached predetermined leaf stages {1. barnyardgrass (Echinochloa crus-galli L.), ECHCG: 1.1-2.1 leaf stage, 2. crabgrass (Digitaria sanguinalis L.), DIGSA: 1.0-2.0 leaf stage, 3. green foxtail (Setaria viridis L.), SETVI: 1.0-2.2 leaf stage, 4. redroot pigweed (Amaranthus retroflexus L.), AMARE: 0.1-1.5 leaf stage, 5. prickly sida (Sida spinosa L.), SIDSP: 0.1-0.6 leaf stage, 6. velvetleaf (Abutilon theophrasti), ABUTH: 0.1-0.6 leaf stage, 7. common cocklebur (Xanthium strumarium L.), XANST: 0.1 leaf stage, 8. rice (Oryza sativa L.), ORYSA; 1.0-2 leaf stage, 9. wheat (Triticum aestivum L.), TRZAX: 2.3-3.5 leaf stage, 10. corn (Zea mays L.), ZEAMXN 2.1-2.6 leaf stage, 11. soybean (Glycine max Merr.), GLXMA: primary leaf stage}, a wettable powder or emulsifiable concentrate having the compound of the present invention formulated in accordance with a usual formulation method, was weighed so that the active ingredient would be a predetermined amount, and diluted with water in an amount of 500 L/ha. To the diluted solution, 0.1% (v/v) of an agricultural spreader was added. The herbicide adjusted was applied by a small size sprayer for foliage treatment. On the 20th to 23rd day after the application of the herbicide, the growth of the respective plants was visually observed, and the herbicidal effects were evaluated by growth controlling degrees (%) ranging from 0 (equivalent to the untreated control) to 100 (complete kill), whereby the results shown in Table 5, were obtained. Compound Nos. in Table 5 correspond to Compound Nos. in Table 1 and 2 given hereinbefore.

[2] = test system: soybean (Glycine max Merr.), GLXMA; assay: Test Example 2 post-emergence (foliage treatment) herbicidal activity, GLXMA; details: 63 g a.i./ha
From the text: as §1

[3] = test system: velvetleaf (Abutilon theophrasti): ABUTH; assay: Test Example 1 pre-emergence herbicidal activity, ABUTH; details: Rate 63 g a.i./ha, visually observed 20th to 23rd day after application
From the text: (§2) Upland field soil was put into a 1/170,000 ha pot, and seeds of various plants {1. barnyardgrass (Echinochloa crus-galli L.): ECHCG, 2. crabgrass (Digitaria sanguinalis L.): DIGSA, 3. green foxtail (Setaria viridis L.): SETVI, 4. redroot pigweed (Amaranthus retroflexus L.): AMARE, 5. prickly sida (Sida spinosa L.): SEDSP, 6. velvetleaf (Abutilon theophrasti): ABUTH, 7. common cocklebur (Xanthium strumarium L.): XANST, 8. rice (Oryza sativa L.): ORYSA, 9. wheat (Triticum aestivum L.): TRZAX, 10. corn (Zea mays L.): ZEAMX, 11. soybean (Glycine max Merr.): GLXMA} were sown. Then, one day after the sowing, a wettable powder or emulsifiable concentrate having the compound of the present invention formulated in accordance with a usual formulation method, was weighed so that the active ingredient would be a predetermined amount and diluted with water in an amount of 500 L/ha. The herbicide adjusted was applied by a small size sprayer for preemergence treatment. On the 20th to 23rd day after the application of the herbicide, the growth of the respective plants was visually observed, and the herbicidal effects were evaluated by growth controlling degrees (%) ranging from 0 (equivalent to the untreated control) to 100 (complete kill), whereby the results shown in Table 4, were obtained. Compound Nos. in Table 4 correspond to Compound Nos. in Table 1 and 2 given hereinbefore.

[4] = test system: rice (Oryza sativa L.), ORYSA; assay: Test Example 2 post-emergence (foliage treatment) herbicidal activity, ORYSA; details: 63 g a.i./ha
From the text: as §1

[5] = test system: wheat (Triticum aestivum L.): TRZAX; assay: Test Example 1 pre-emergence herbicidal activity, TRZAX; details: Rate 63 g a.i./ha, visually observed 20th to 23rd day after application
From the text: as §2

[6] = test system: wheat (Triticum aestivum L.), TRZAX; assay: Test Example 2 post-emergence (foliage treatment) herbicidal activity, TRZAX; details: 63 g a.i./ha
From the text: as §1

[7] = test system: crabgrass (Digitaria sanguinalis L.): DIGSA; assay: Test Example 1 pre-emergence herbicidal activity, DIGSA; details: Rate 63 g a.i./ha, visually observed 20th to 23rd day after application
From the text: as §2

[8] = test system: soybean (Glycine max Merr.): GLXMA; assay: Test Example 1 pre-emergence herbicidal activity, GLXMA; details: Rate 63 g a.i./ha, visually observed 20th to 23rd day after application
From the text: as §2

[9] = test system: green foxtail (Setaria viridis L.), SETVI; assay: Test Example 2 post-emergence (foliage treatment) herbicidal activity, SETVI; details: 63 g a.i./ha
From the text: as §1

[10] = test system: corn (Zea mays L.), ZEAMX; assay: Test Example 2 post-emergence (foliage treatment) herbicidal activity, ZEAMX; details: 63 g a.i./ha
From the text: as §1

[11] = test system: corn (Zea mays L.): ZEAMX; assay: Test Example 1 pre-emergence herbicidal activity, ZEAMX; details: Rate 63 g a.i./ha, visually observed 20th to 23rd day after application
From the text: as §2

[12] = test system: green foxtail (Setaria viridis L.): SETVI; assay: Test Example 1 pre-emergence herbicidal activity, SETVI; details: Rate 63 g a.i./ha, visually observed 20th to 23rd day after application
From the text: as §2

[13] = test system: redroot pigweed (Amaranthus retroflexus L.), AMARE; assay: Test Example 2 post-emergence (foliage treatment) herbicidal activity, AMARE; details: 63 g a.i./ha
From the text: as §1

[14] = test system: barnyardgrass (Echinochloa crus-galli L.): ECHCG; assay: Test Example 1 pre-emergence herbicidal activity, ECHCG; details: Rate 63 g a.i./ha, visually observed 20th to 23rd day after application
From the text: as §2

[15] = test system: barnyardgrass (Echinochloa crus-galli L.), ECHCG; assay: Test Example 2 post-emergence (foliage treatment) herbicidal activity, ECHCG; details: 63 g a.i./ha
From the text: as §1

[16] = test system: redroot pigweed (Amaranthus retroflexus L.): AMARE; assay: Test Example 1 pre-emergence herbicidal activity, AMARE; details: Rate 63 g a.i./ha, visually observed 20th to 23rd day after application
From the text: as §2

[17] = test system: prickly sida (Sida spinosa L.): SEDSP; assay: Test Example 1 pre-emergence herbicidal activity, SIDSP; details: Rate 63 g a.i./ha, visually observed 20th to 23rd day after application
From the text: as §2

[18] = test system: rice (Oryza sativa L.): ORYSA; assay: Test Example 1 pre-emergence herbicidal activity, ORYSA; details: Rate 63 g a.i./ha, visually observed 20th to 23rd day after application
From the text: as §2

[19] = test system: velvetleaf (Abutilon theophrasti), ABUTH; assay: Test Example 2 post-emergence (foliage treatment) herbicidal activity, ABUTH; details: 63 g a.i./ha
From the text: as §1

Row | Compound | growth controlling degree, DIGSP [1] [%] | growth controlling degree, GLXMA [2] [%] | Pre-emergence Herbicidal Activity ABUTH (growth controlling degree) [3] [%] | growth controlling degree, ORYSA [4] [%] | Pre-emergence Herbicidal Activity TRZAX (growth controlling degree) [5] [%] | growth controlling degree, TRZAX [6] [%] | Pre-emergence Herbicidal Activity DIGSP (growth controlling degree) [7] [%] | Pre-emergence Herbicidal Activity GLXMA (growth controlling degree) [8] [%] | growth controlling degree, SETVI [9] [%] | growth controlling degree, ZEAMX [10] [%] | Pre-emergence Herbicidal Activity ZEAMX (growth controlling degree) [11] [%] | Pre-emergence Herbicidal Activity SETVI (growth controlling degree) [12] [%] | growth controlling degree, AMARE [13] [%] | Pre-emergence Herbicidal Activity ECHCG (growth controlling degree) [14] [%] | growth controlling degree, ECHCO [15] [%] | Pre-emergence Herbicidal Activity AMARE (growth controlling degree) [16] [%] | Pre-emergence Herbicidal Activity SIDSP (growth controlling degree) [17] [%] | Pre-emergence Herbicidal Activity ORYSA (growth controlling degree) [18] [%] | growth controlling degree, ABUTH [19] [%]
1 | COc1c(Cl)cc(F)c(-c2nn(C)c(OC(F)F)c2Cl)c1NC(=O)C(C)(C)OC(C)=O [Compound 1-44] | 60 | 40 | 60 | 50 | 10 | 20 | 100 | 0 | 80 | 10 | 0 | 20 | 100 | 10 | 50 | 100 | 100 | 10 | 100
2 | COc1c(Cl)cc(F)c(-c2nn(C)c(OC(F)F)c2Cl)c1NC(=O)c1cccc(C)c1 [Compound 1-260] | 95 | 70 | 40 | 60 | 30 | 40 | 100 | 0 | 100 | 60 | 10 | 100 | 100 | 60 | 100 | 100 | 70 | 50 | 100
